The assay deals with MIA PaCa-2.
The mark [1] stands for this setting: OFD1 knockdown: no (no doxycycline).
[2] abbreviates: OFD1 knockdown: yes (Tet-on shOFD1, 100 ng/mL doxycycline).

As to `CC[C@H](NC(=O)[C@H](C)NC)C(=O)N1C[C@@H](O)C[C@H]1Cc1c(-c2[nH]c3cc(F)ccc3c2C[C@@H]2C[C@H](O)CN2C(=O)[C@H](CC)NC(=O)[C@H](C)NC)[nH]c2cc(F)ccc12` [S7015], the IC50 cell viability by setting is: under setting [1], 21.9 µM; under setting [2], 20.3 µM.
For `COc1nc(N)nc2c1ncn2[C@@H]1O[C@H](CO)[C@@H](O)[C@@H]1O` [S1213] the same measures were 1.66 µM and 1.5 µM.
The corresponding values for `CC(C)C(=O)Nc1ccc([N+](=O)[O-])c(C(F)(F)F)c1` [S1908] are 2.71 µM and 2.5 µM.
For `Nc1ccccc1NC(=O)c1ccc(CNC(=O)OCc2cccnc2)cc1` [S1053] the same measures were 11 µM and 11.2 µM.
With `CCc1c2c(nc3ccc(OC(=O)N4CCC(N5CCCCC5)CC4)cc13)-c1cc3c(c(=O)n1C2)COC(=O)[C@]3(O)CC` [S2217], the IC50 cell viability runs as follows: under setting [1], 43.2 µM; under setting [2], 47.2 µM.
In the case of `Cc1ccc(-c2cc(C(F)(F)F)nn2-c2ccc(S(N)(=O)=O)cc2)cc1` [S1261], the IC50 cell viability runs as follows: under setting [1], 25.2 µM; under setting [2], 24.3 µM.
For `CC(=O)O[C@]1(C(C)=O)CC[C@H]2[C@@H]3C[C@H](C)C4=CC(=O)CC[C@]4(C)[C@H]3CC[C@@]21C` [S2567] the same measures were 10.2 µM and 8.9 µM.
As for `C/C(=C\c1csc(C)n1)[C@@H]1C[C@@H]2O[C@]2(C)CCC[C@H](C)[C@H](O)[C@@H](C)C(=O)C(C)(C)[C@@H](O)CC(=O)O1` [S1364], the IC50 cell viability reads like this: under setting [1], 0.76 µM; under setting [2], 0.87 µM.
For `CCC1=C[C@@H]2CN(C1)Cc1c([nH]c3ccccc13)[C@@](C(=O)OC)(c1cc3c(cc1OC)N(C)[C@H]1[C@@](O)(C(=O)OC)[C@H](OC(C)=O)[C@]4(CC)C=CCN5CC[C@]31[C@@H]54)C2` [S4269] the same measures were 3.46 µM and 3.12 µM.
The corresponding values for `CCOc1cc2ncc(C#N)c(Nc3ccc(F)c(Cl)c3)c2cc1NC(=O)/C=C/CN(C)C` [S1392] are 53.8 µM and 56.4 µM.
As to `COc1ncc(-c2ccc3nccc(-c4ccnnc4)c3c2)cc1NS(=O)(=O)c1ccc(F)cc1F` [S2658], the IC50 cell viability is, setting by setting: under setting [1], 8.98 µM; under setting [2], 8.74 µM.
In the case of `COc1cc([C@@H]2c3cc4c(cc3[C@@H](O[C@@H]3O[C@@H]5CO[C@@H](C)O[C@H]5[C@H](O)[C@H]3O)[C@H]3COC(=O)[C@H]23)OCO4)cc(OC)c1O` [S1225], the IC50 cell viability came out at 2.31 µM under setting [1] and 2.03 µM under setting [2].
In the case of `CN1CC(=O)N2[C@H](c3ccc4c(c3)OCO4)c3[nH]c4ccccc4c3C[C@@H]2C1=O` [S1512], the IC50 cell viability stood at 23.7 µM under setting [1] and 23.5 µM under setting [2].
For the compound `CC(C)n1c(/C=C/C(O)CC(O)CC(=O)O)c(-c2ccc(F)cc2)c2ccccc21` (stereo unspecified) [S1909], the IC50 cell viability was determined as 8.13 µM under setting [1] and 7.35 µM under setting [2].
For `CN1CCN(c2ccc3nc(-c4c(N)c5c(F)cccc5[nH]c4=O)[nH]c3c2)CC1` [S1018], the IC50 cell viability came to 12.9 µM under setting [1] and 11.7 µM under setting [2].
With `Cc1ccc(O)c([C@H](CCN(C(C)C)C(C)C)c2ccccc2)c1` [S2550], the IC50 cell viability runs as follows: under setting [1], 10.2 µM; under setting [2], 9.8 µM.
In the case of `CCCCCOC(=O)Nc1nc(=O)n([C@@H]2O[C@H](C)[C@@H](O)[C@H]2O)cc1F` [S1156], the IC50 cell viability under setting [1] came to 34 µM and the IC50 cell viability under setting [2] was 34.3 µM.
As to `CC/C(=C(\c1ccccc1)c1ccc(OCCN(C)C)cc1)c1ccccc1` [S1972], the IC50 cell viability by setting is: under setting [1], 42 µM; under setting [2], 36.7 µM.
`O=C(c1cc(Cc2n[nH]c(=O)c3ccccc23)ccc1F)N1CCN(C(=O)C2CC2)CC1` [S1060]: the IC50 cell viability was 53.8 µM under setting [1] and 31.9 µM under setting [2].
In the case of `O=C(CCCCCCC(=O)Nc1ccccc1)NO` [S1047], the IC50 cell viability by setting is: under setting [1], 5.55 µM; under setting [2], 5.13 µM.
For `COc1cccc2c1C(=O)c1c(O)c3c(c(O)c1C2=O)C[C@@](O)(C(C)=O)C[C@@H]3O[C@H]1C[C@H](N)[C@H](O)[C@H](C)O1` [S3035] the same measures were 3.36 µM and 3.39 µM.
The corresponding values for `Nc1nc(F)nc2c1ncn2[C@@H]1O[C@H](CO)[C@@H](O)[C@@H]1O` [S1491] are 59 µM and 54.2 µM.
For `COc1cccc2c1C(=O)c1c(O)c3c(c(O)c1C2=O)C[C@@](O)(C(=O)CO)C[C@@H]3O[C@H]1C[C@H](N)[C@@H](O)[C@H](C)O1` [S1223] the same measures were 0.63 µM and 0.58 µM.
Consider `Cc1cc(Nc2cc(N3CCN(C)CC3)nc(Sc3ccc(NC(=O)C4CC4)cc3)n2)n[nH]1` [S1048], for which the IC50 cell viability was found to be 22.9 µM under setting [1] and 22.7 µM under setting [2].
With `Nc1nc(Cl)nc2c1ncn2[C@@H]1O[C@H](CO)[C@@H](O)[C@@H]1F` [S1218], the IC50 cell viability under setting [1] came to 0.55 µM and the IC50 cell viability under setting [2] was found to be 0.53 µM.
For `Cc1nc(Nc2ncc(C(=O)Nc3c(C)cccc3Cl)s2)cc(N2CCN(CCO)CC2)n1` [S1021] the same measures were 0.81 µM and 0.61 µM.
For `CC[C@]1(O)C[C@H]2CN(CCc3c([nH]c4ccccc34)[C@@](C(=O)OC)(c3cc4c(cc3OC)N(C=O)[C@H]3[C@@](O)(C(=O)OC)[C@H](OC(C)=O)[C@]5(CC)C=CCN6CC[C@]43[C@@H]65)C2)C1` [S1241] the same measures were 20.9 µM and 21.3 µM.
As to `NC(=O)NO` [S1896], the IC50 cell viability was 4.41 µM under setting [1] and 4.33 µM under setting [2].
For `C[C@@H]1CCN(C(=O)CC#N)C[C@@H]1N(C)c1ncnc2[nH]ccc12` [S2789] the same measures were 2.19 µM and 2.38 µM.
The corresponding values for `C=C1/C(=C\C=C2/CCC[C@]3(C)[C@@H]([C@H](C)/C=C/[C@H](C)C(C)C)CC[C@@H]23)C[C@@H](O)C[C@@H]1O` [S1467] are 46.5 µM and 45.7 µM.
On to `Cc1ccc(C(=O)N(CCCN)[C@@H](c2nc3cc(Cl)ccc3c(=O)n2Cc2ccccc2)C(C)C)cc1` [S1452], for which the IC50 cell viability was 1.44 µM under setting [1] and 1.4 µM under setting [2].
As for `C[C@]12CCC(=O)C=C1CC[C@@H]1[C@@H]2[C@@H](O)C[C@@]2(C)[C@H]1CC[C@]2(O)C(=O)CO` [S1696], the IC50 cell viability runs as follows: under setting [1], 57.9 µM; under setting [2], 53.4 µM.
The corresponding values for `S=C(NCc1ccc2c(c1)OCO2)N1CCN(c2ncnc3c2oc2ccccc23)CC1` [S1244] are 51.5 µM and 51.9 µM.
The corresponding values for `CC(C)(C)Cn1c(N)nc2ccc(-c3[nH]c(C(C)(C)C)nc3-c3ccc(F)cc3)nc21` [S1494] are 4.04 µM and 3.46 µM.
The corresponding values for `Cc1ccc(NC(=O)c2ccc(CN3CCN(C)CC3)cc2)cc1Nc1nccc(-c2cccnc2)n1` [S1026] are 15 µM and 14.8 µM.
On to `CCCCCCNC(=O)n1cc(F)c(=O)[nH]c1=O` [S1289], for which the IC50 cell viability under setting [1] was 2.36 µM and the IC50 cell viability under setting [2] was determined as 2.4 µM.
Take `CC1(C)CCC(CN2CCN(c3ccc(C(=O)NS(=O)(=O)c4ccc(NCC5CCOCC5)c([N+](=O)[O-])c4)c(Oc4cnc5[nH]ccc5c4)c3)CC2)=C(c2ccc(Cl)cc2)C1` [S8048]: the IC50 cell viability stood at 13.1 µM under setting [1] and 12.1 µM under setting [2].
The corresponding values for `CS(=O)(=O)CCNCc1ccc(-c2ccc3ncnc(Nc4ccc(OCc5cccc(F)c5)c(Cl)c4)c3c2)o1` [S1028] are 16.8 µM and 15 µM.
For `COc1cc(Nc2nc3ccccc3nc2NS(=O)(=O)c2ccc(NC(=O)c3ccc(C)c(OC)c3)cc2)cc(OC)c1` [S1523] the same measures were 47.6 µM and 45.5 µM.
`Nc1nc(CC(=O)Nc2ccc(CCNC[C@H](O)c3ccccc3)cc2)cs1` [S4009] showed an IC50 cell viability under setting [1] of 27 µM and an IC50 cell viability under setting [2] of 23.9 µM.
`Cc1cnc(Nc2ccc(OCCN3CCCC3)cc2)nc1Nc1cccc(S(=O)(=O)NC(C)(C)C)c1` [S2736]: the IC50 cell viability stood at 14.5 µM under setting [1] and 13.5 µM under setting [2].
The corresponding values for `CNC(=O)c1ccccc1Sc1ccc2c(/C=C/c3ccccn3)n[nH]c2c1` [S1005] are 38.7 µM and 43.9 µM.
The corresponding values for `Cc1nc(=O)c2cc(CN(C)c3ccc(C(=O)N[C@@H](CCC(=O)O)C(=O)O)s3)ccc2[nH]1` [S1192] are 15.8 µM and 14.1 µM.

Source of the values: the supplement of paper PMC12325586.
